In patent US9409904B2, “Compounds and compositions for use in augmentation of glucose” (YISSUM RESEARCH DEVELOPMENT COMPANY OF THE HEBREW …, priority 2011, dated 2016):
“Also recorded” adds a separate entry of the source. Where two headings read alike, the source gives them in different places.

Experiments:
[1] = tested on: L6 myotubes; assay: [3H]-2-deoxy-D-glucose (dGlc) uptake assay in L6 myotubes; format: cell-based; settings: for rate of glucose uptake compared to vehicle (DMSO) treated control / activity at 100 µM: 100 μM; for rate of glucose uptake compared to vehicle (DMSO) treated control: basal rate = 100%; for activity at 100 µM: Rattus norvegicus, L6, Mean ± SD (n = 3), read-out: Effect on glucose uptake [100 μM] in L6 myotubes (%); for maximal effective concentration, glucose uptake: dose response, 5 h (3) or 12 h (4, 15)
Protocol: The effect of the various derivatives on the rate of glucose uptake in L6 myotubes was investigated. […] The abundance of GLUT1 and GLUT4 in the plasma membranes of L6 myotubes was determined in cells expressing GLUT-1myc or GLUT-4myc, as described before. […] In addition, the effect of compounds on the glucose—stimulated insulin secretion (GSIS) was investigated.
L6 myotubes were maintained as described in [21]. All experiments were conducted on fully differentiated myotubes.
The rate of [^3H]dGlc uptake in myotubes, in the absence or presence of insulin, was determined as described in [21]. […] […] The cultures were then rinsed 3 times with PBS at room temperature and incubated with PBS, pH 7.4, containing 0.1 mM dGlc and 1.0 μCi/ml [^3H]dGlc for 5 minutes at room temperature. At the end of the assay, the myotubes were lysed in 0.1% (w/v) SDS in water and taken for liquid scintillation.

[2] = tested on: AMPK; assay: Thr172 phosphorylation of AMPK in L6 myotubes, Western blot of whole cell lysates; format: cell-based; settings: for Thr172 phosphorylation in AMPK / AMPK activation (result in words): L6 myotubes
Protocol: The effect of the various derivatives on the rate of glucose uptake in L6 myotubes was investigated. […] The abundance of GLUT1 and GLUT4 in the plasma membranes of L6 myotubes was determined in cells expressing GLUT-1myc or GLUT-4myc, as described before. […] In addition, the effect of compounds on the glucose—stimulated insulin secretion (GSIS) was investigated. Whole cell lysates were prepared as previously described with some minor modifications: the lysis buffer contained 50 mM Tris-HCl, pH 7.5, 1 mM EDTA, 1 mM EGTA, 1 mM Na3VO4, 150 mM NaCl, 50 mM NaF, 10 mM sodium-glycerophosphate, 5 mM sodium pyrophosphate, and 1 mM PMSF, supplemented with 0.1% (v/v) NP-40, 0.1% (v/v) 2-β-mercaptoethanol, and protease inhibitor cocktail (1:100 dilution). The cells were washed by ice-cold PBS, and 1 ml of lysis buffer was then added and incubated at 4° C. for 40 minutes. The resulting cell lysates were centrifuged at 8,700 g×30 minutes at 4° C. and the resulting supernatant fractions were separated and kept at −20° C. until used. Protein content in the supernatant was determined according to Bradford, using a BSA standard dissolved in the same buffer. […] Samples for Western blot analyses of GLUT1 and GLUT4 were prepared as described in [22]. The proteins were separated on 10% SDS-PAGE and Western blot analyses performed using antibodies according to our previously established protocols.

**Q.** For `NC1=NC(=O)/C(=C\C=C\c2ccc([N+](=O)[O-])o2)S1` [Compound 2, (E)-2-Amino-5-((E)-3-(5-nitrofuran-2-yl)allylidene)thiazol-4(5H)-one], which “rate of glucose uptake in L6 myotubes (result in words)” value (from here on “rate of glucose uptake in L6 myotubes”) [1] is on record?
**A.** slightly increased

**Q.** And the “concentrations at which effects on glucose uptake and Thr172 phosphorylation were observed” value ([1]; L6 myotubes, data not shown)?
**A.** above 500 μM

**Q.** And the “Thr172 phosphorylation in AMPK / AMPK activation (result in words)” value [2]?
**A.** marginally induced

**Q.** What does the source list for `CCOc1ccc2nc(S)sc2c1` [Compound 4, 6-ethoxybenzo[d]thiazole-2-thiol]?
**A.** persistence of stimulatory effect on glucose uptake [1]: 24 h; rate of glucose uptake in L6 myotubes (result in words) [1]: increase; rate of glucose uptake compared to vehicle (DMSO) treated control [1]: 172.4%±12.4%; activity at 100 µM ([1]; Table 2): 172 ± 12.4%; maximal effective concentration, glucose uptake [1]: 100 µM; Thr172 phosphorylation in AMPK / AMPK activation (result in words) [2]: significantly induced

**Q.** With `Nc1nncs1` [Compound 5, 2-amino-1,3,4-thiadiazole] as the compound, how does the activity at 100 µM ([1]; Table 1) read?
**A.** 97.4 ± 2.9%

**Q.** With `Cc1nnc(N)s1` [Compound 6, 2-amino-5-methyl-1,3,4-thiadiazole] as the compound, how does the activity at 100 µM ([1]; Table 1) read?
**A.** 101 ± 5.5%

**Q.** Which activity at 100 µM ([1]; Table 1) does the source give for `Cn1cnnc1S` [Compound 7, 3-mercapto-4-methyl-4H-1,2,4-triazole] here?
**A.** 107 ± 7.5%

**Q.** Which activity at 100 µM ([1]; Table 1) does the source give for `Sc1ncccn1` [Compound 8, 2-mercaptopyrimidine] here?
**A.** 100 ± 4.9%

**Q.** For `Cn1ccnc1S` [Compound 9, 2-mercapto-1-methylimidazole], which activity at 100 µM ([1]; Table 1) is on record?
**A.** 93 ± 9.5%

**Q.** With `Nc1nccs1` [Compound 10, 2-aminothiazole] as the compound, how does the activity at 100 µM ([1]; Table 1) read?
**A.** 95.7 ± 5.1%

**Q.** Which activity at 100 µM ([1]; Table 1) does the source give for `SC1=NCCS1` [Compound 11, 2-mercapto-2-thiazoline] here?
**A.** 106 ± 6.8%

**Q.** Which activity at 100 µM ([1]; Table 1) does the source give for `Nc1ncc([N+](=O)[O-])s1` [Compound 12, 2-amino-5-nitrothiazole] here?
**A.** 95.1 ± 8.9%

**Q.** For `c1ccc2scnc2c1` [Compound 13, benzothiazole], which activity at 100 µM ([1]; Table 2) is on record?
**A.** 117 ± 9.7%

**Q.** For `CCOc1ccc2nc(N)sc2c1` [Compound 14, 6-ethoxybenzothiazol-2-amine], which activity at 100 µM ([1]; Table 2) is on record?
**A.** 111 ± 14.2%

**Q.** For `Oc1nc2ccc(Br)cc2s1` [Compound 15, 6-bromo-2-benzothiazolinone], which “persistence of stimulatory effect on glucose uptake” value [1] is on record?
**A.** 24 h

**Q.** What about the “rate of glucose uptake in L6 myotubes” value [1] of the same compound?
**A.** increase

**Q.** And the “rate of glucose uptake compared to vehicle (DMSO) treated control” value [1]?
**A.** 132.9%±13.8%

**Q.** What about the activity at 100 µM ([1]; Table 2) of the same compound?
**A.** 133 ± 13.8%

**Q.** What about the “maximal effective concentration, glucose uptake” value [1] of the same compound?
**A.** 100 µM

**Q.** And the “Thr172 phosphorylation in AMPK / AMPK activation (result in words)” value [2]?
**A.** significantly induced

**Q.** Which activity at 100 µM ([1]; Table 2) does the source give for `c1cnc2[nH]nnc2c1` [Compound 16, 1H-1,2,3-triazolo[4,5]pyridine] here?
**A.** 86.7 ± 17.9%

**Q.** Which activity at 100 µM ([1]; Table 2) does the source give for `c1ccc2[nH]nnc2c1` [Compound 17, 1H-benzotriazole] here?
**A.** 87.5 ± 11.4%

**Q.** With `Oc1ccc2nc(S)sc2c1` [Compound 19, 2-mercaptobenzothiazol-6-ol] as the compound, how does the “rate of glucose uptake in L6 myotubes” value [1] read?
**A.** did not stimulate

**Q.** With `CCC(CC)CSc1nc2ccc(O)cc2s1` [Compound 21, 2-(2-ethylbutylthio)benzothiazol-6-ol] as the compound, how does the melting point read?
**A.** 105 to 110 °C

**Q.** Which melting point does the source give for `CCCCSc1nc2ccc(O)cc2s1` [Compound 23, 2-(butylthio)benzothiazol-6-ol] here?
**A.** 80 to 85 °C

**Q.** Which results are given for `CCOc1ccc2nc(SCCC(=O)O)sc2c1` [Compound 25, 3-(6-ethoxybenzothiazol-2-ylthio)propanoic acid]?
**A.** rate of glucose uptake in L6 myotubes (result in words) [1]: increase; increase of glucose uptake in comparison with vehicle-treated cells ([1]; 50 μM, within 5 hours of incubation): 1.8 fold; melting point: 175 to 178 °C; Thr172 phosphorylation in AMPK / AMPK activation (result in words) [2]: activated AMPK; time of maximal (peak) Thr172 phosphorylation in AMPK ([2]; incubation time): 60 min

**Q.** For `CCOc1ccc2nc(S(N)(=O)=O)sc2c1` [Compound 30, 6-ethoxybenzothiazole-2-sulfonamide], which “rate of glucose uptake in L6 myotubes” value [1] is on record?
**A.** inactive

**Q.** For `c1ccc2[nH]c(SSc3nc4ccccc4[nH]3)nc2c1` [Compound 32, 1,2-di(1H-benziimidazol-2-yl)disulfane], which “rate of glucose uptake in L6 myotubes” value [1] is on record?
**A.** no stimulatory effect

**Q.** For `CCCNC(=O)CSc1nc2ccc(OCC)cc2s1` [Compound 33, 2-((6-ethoxybenzothiazol-2-yl)thio)-N-propylacetamide], which “rate of glucose uptake in L6 myotubes” value [1] is on record?
**A.** increase; also recorded: markedly augmented

**Q.** And the “increase of rate of glucose uptake” value ([1]; 100 μM within 5 hours of incubation)?
**A.** 2 fold

**Q.** What about the “time to significant Thr172 phosphorylation of AMPK” value ([2]; incubation time) of the same compound?
**A.** 5 h
